No end group written: not given here.
Assays:
[1] = tested on: CYP1A1, TNF-a, IL-6, IL-1b, COX-2 mRNA; test: RT-PCR of CYP1A1 and inflammatory molecules induced by TCDD; format: cell-based, human; conditions: HaCaT cells; 10 nM TCDD; 50 μM peptide; 6 hours or 24 hours
Protocol: (§1) HaCaT cells, human keratinocyte cells, were seeded on a 6-well plate at a density of 3×10^5 cells/well and cultured overnight. Subsequently, 10 nM of TCDD and 50 μM of the peptide consisting of an amino acid sequence of SEQ ID NO: 1, 2, or 3 were added to the culture medium. After 30 minutes of reaction, the cells were treated for 6 hours or 24 hours and collected to separate RNA therefrom. After quantifying RNA, cDNA was synthesized using a cDNA synthesis kit (Intron, Korea). Then, polymerase chain reaction (PCR) was performed using a PCR PreMix kit (Intron, Korea) and a primer for each of CYP1A1, TNF-a, IL-6, IL-1 b, and COX-2 shown in Table 4. Then, by running the resultant on a 5% agarose gel, the expression levels of mRNA of the growth factors were compared under the conditions of treating the respective samples, and the results are shown in FIGS. 5A to 5C.

[2] = tested on: CYP1A1, TNF-a, IL-6, IL-1b, COX-2 mRNA; test: RT-PCR of CYP1A1 and inflammatory molecules induced by particulate matter; format: cell-based, human; conditions: HaCaT cells; 10 nM particulate matter; 50 μM peptide; 6 hours or 24 hours
Protocol: as §1, with “particulate matter (PM)” for “TCDD”, “PCR” for “polymerase chain reaction (PCR)”, “IL-1b,” for “IL-1 b,”, “5.” for “4.”, “7A” for “5A”, “7C.” for “5C.”

| Substance | effect on expressions of CYP1A1 and inflammatory factors induced by TCDD (in words) [1] | effect on expressions of CYP1A1 and inflammatory factors induced by particulate matter (in words) [2] |
| --- | --- | --- |
| DVENTS [SEQ ID NO: 3, DVENTS] | inhibiting expressions of CYP1A1 and various inflammatory factors induced by TCDD | inhibiting expressions of CYP1 A1 and various inflammatory factors induced by particulate matter |
| ILGRWCG [SEQ ID NO: 2, ILGRWCG] | inhibiting expressions of CYP1A1 and various inflammatory factors induced by TCDD | inhibiting expressions of CYP1 A1 and various inflammatory factors induced by particulate matter |
| KWGGGRY [SEQ ID NO: 1, KWGGGRY] | inhibiting expressions of CYP1A1 and various inflammatory factors induced by TCDD | inhibiting expressions of CYP1 A1 and various inflammatory factors induced by particulate matter |
